# Measured values taken from patent publication US10597398B2, “Suppression and regeneration promoting effect of low molecular weight compound on cancer and fibrosis” (NATIONAL UNIVERSITY CORPORATION TOTTORI UNIVERSITY, priority 2015, dated 2020).
# Key:
# HuH-7 cells = test: Growth inhibitory effect on cancer cells (WST assay), Example 2.3; assay type: cell-based, human; conditions: HuH-7 cells, WST assay, concentrations 0-50 μM, control 0.1% DMSO
# How it was run: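 HuH-7 human hepatoma cells seeded at 5×10^3 cells/well, treated after 24 h with compound at 0–50 μM (0.1% DMSO vehicle control), n=3. Viability read by WST (CCK-8) absorbance at 450/600 nm after 60 min at 37 °C, taken 0, 24, 48 and 96 h post-treatment; kit-only blank subtracted.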
# [1] = Liver cancer model mouse, body weight; assay type: in vivo, mice; conditions: 30 mg/kg 5-FU or 50 mg/kg IC-2 intraperitoneally every three days
# Procedure: CD44-positive HuH-7 cells were subcutaneously transplanted in mice. Next, the engrafted mice were divided into 3 groups (DMSO group: 5 mice; 5-FU group: 4 mice; and IC-2 group: 4 mice). Then, DMSO was added to prepare 30 mg/kg of 5-FU and 50 mg/kg of IC-2 such that each liquid volume was 100 μL; and 100% DMSO, a solvent for each drug, was used as a control sample. Subsequently, each drug was dosed intraperitoneally every three days. The body weight of each mouse and the long and short diameters of a tumor were measured every three days. The tumor volume was calculated by using the following equation: Tumor volume=Long diameter×(Short diameter)^2×0.5. The volume at Day 0 was used to normalize each tumor volume, and then a graph was created. To fully evaluate a 5-FU effect, the 5-FU dose was set to an amount 2 times the regular amount 15 mg/kg used in research articles. The concentration of IC-2 corresponding to a concentration at which Wnt/β-catenin signaling was inhibited in vitro was calculated. Then, the concentration was doubled to set an IC-2 dose.
# liver fibrosis = test: Non-alcoholic steatohepatitis model mouse (Azan staining); assay type: in vivo, C57BL/6JHamSlc-ob/ob male mice; conditions: high fat diet 12 weeks, drug for last 6 weeks, IC-2 21.2 mg/kg i.p. 3 times a week, vs vehicle group
# Procedure: To induce anesthesia, 1-mL disposable syringe with a 27-G needle was used to intraperitoneally inject, into a mouse, 1 μL/g body weight of a systemic anesthetic somnopentyl (Kyoritsuseiyaku Corporation, Tokyo).
# The liver tissue sample, as so resected, was fixed in 4% paraformaldehyde at room temperature for 16 h, embedded in paraffin, and sectioned with a microtome to prepare tissue sections. The tissue sections were subjected to deparaffinization using xylene (Nacalai tesque) and a hydration reaction with ethanol (Nacalai tesque), and were then allowed to stand in 5% potassium dichromate/trichloroacetic acid aqueous solution (Wako Pure Chemical Industries, Ltd.) for 20 min. After washing in running water for 5 min, the tissue sections were stained with Azocarmine G (Wako Pure Chemical Industries, Ltd.) at 60° C. for 1 h, washed with water, and then destained for 3 min in 5% aniline (Nacalai tesque)-containing ethanol solution. Next, 5% acetic acid (Nacalai tesque)-containing ethanol solution was used to stop the destaining reaction. After washing with water, the tissue sections were allowed to stand in 5% phosphotungstic acid aqueous solution (Alfa Aesar, Ward Hill, Mass.) for 1 h. […] The ratio of the blue-stained fiber area to the total tissue area of each photographed image was quantified to calculate a fibrosis-positive area ratio. […]
IC50 (HuH-7 cells),SMILES,body weight [1],fibrosis area (Azan staining) (liver fibrosis)
> 50 µM,COc1ccc(COc2ccc(CNC(=O)N3CCC(=O)N4C(Cc5ccccc5)C(=O)N(Cc5cccc6ccccc56)CC34)cc2)cc1 (stereo not drawn) [IC-2-OPMB],,
,O=C1C(Cc2ccccc2)N2C(=O)CCN(C(=O)NCc3ccccc3)C2CN1Cc1cccc2ccccc12 (stereo not drawn) [IC-2],no change in the body weight,decrease more than that of the vehicle group
